Reference: ChEMBL document CHEMBL5104172, “Design, synthesis, and antibacterial activity of derivatives of Tryptophanyl-tRNA synthetase inhibitor indolmycin” (Eur J Med Chem, 2022)
Values after ≈ are worked out from the molar mass of the structure shown.

What was measured:
[1] = system: Staphylococcus epidermidis; test: Antibacterial activity against methicillin-resistant Staphylococcus epidermidis MRSE17-4 measured by liquid dilution method; format: functional
Staphylococcus aureus [2] = test: Antibacterial activity against methicillin-resistant Staphylococcus aureus MRSA17-2 measured by liquid dilution method; format: functional
Staphylococcus aureus [3] = test: Antibacterial activity against methicillin-sensitive Staphylococcus aureus MSSA17-1 measured by liquid dilution method; format: functional
[4] = system: Staphylococcus epidermidis; test: Antibacterial activity against methicillin-sensitive Staphylococcus epidermidis MSSE17-3 measured by liquid dilution method; format: functional
[5] = system: Staphylococcus epidermidis; test: Antibacterial activity against methicillin-resistant Staphylococcus epidermidis MRSE17-2 measured by liquid dilution method; format: functional
[6] = system: Staphylococcus epidermidis; test: Antibacterial activity against methicillin-sensitive Staphylococcus epidermidis MSSE17-2 measured by liquid dilution method; format: functional
Staphylococcus aureus [7] = test: Antibacterial activity against methicillin-resistant Staphylococcus aureus MRSA17-6 measured by liquid dilution method; format: functional
Staphylococcus aureus [8] = test: Antibacterial activity against methicillin-resistant Staphylococcus aureus ATCC 33591 measured by liquid dilution method; format: functional
Enterococcus faecium [9] = test: Antibacterial activity against Enterococcus faecium EFM17-1 measured by liquid dilution method; format: functional
Staphylococcus aureus [10] = test: Antibacterial activity against vancomycin-intermediate Staphylococcus aureus ATCC 700788 measured by liquid dilution method; format: functional
Staphylococcus aureus [11] = test: Antibacterial activity against vancomycin-intermediate Staphylococcus aureus ATCC 700699 measured by liquid dilution method; format: functional
Staphylococcus aureus [12] = test: Antibacterial activity against methicillin-resistant Staphylococcus aureus MRSA17-5 measured by liquid dilution method; format: functional
[13] = system: Staphylococcus epidermidis; test: Antibacterial activity against methicillin-resistant Staphylococcus epidermidis MRSE17-6 measured by liquid dilution method; format: functional
Staphylococcus aureus [14] = test: Antibacterial activity against methicillin-sensitive Staphylococcus aureus MSSA17-2 measured by liquid dilution method; format: functional
Staphylococcus aureus [15] = test: Antibacterial activity against methicillin-resistant Staphylococcus aureus MRSA17-1 measured by liquid dilution method; format: functional
Staphylococcus aureus [16] = test: Antibacterial activity against methicillin-resistant Staphylococcus aureus ATCC 43300 measured by liquid dilution method; format: functional
[17] = system: Staphylococcus epidermidis; test: Antibacterial activity against methicillin-sensitive Staphylococcus epidermidis MSSE17-1 measured by liquid dilution method; format: functional
Enterococcus faecalis [18] = test: Antibacterial activity against Enterococcus faecalis EFA17-1 measured by liquid dilution method; format: functional
[19] = system: Staphylococcus epidermidis; test: Antibacterial activity against methicillin-resistant Staphylococcus epidermidis MRSE17-3 measured by liquid dilution method; format: functional
Enterococcus faecium [20] = test: Antibacterial activity against Enterococcus faecium EFM17-2 measured by liquid dilution method; format: functional
Staphylococcus aureus [21] = test: Antibacterial activity against methicillin-resistant Staphylococcus aureus MRSA17-3 measured by liquid dilution method; format: functional
[22] = system: Staphylococcus epidermidis; test: Antibacterial activity against methicillin-resistant Staphylococcus epidermidis MRSE17-1 measured by liquid dilution method; format: functional
Enterococcus faecalis [23] = test: Antibacterial activity against Enterococcus faecalis ATCC 29212 measured by liquid dilution method; format: functional
Staphylococcus aureus [24] = test: Antibacterial activity against methicillin-sensitive Staphylococcus aureus MSSA17-3 measured by liquid dilution method; format: functional
Staphylococcus aureus [25] = test: Antibacterial activity against Staphylococcus aureus ATCC 29213 measured by liquid dilution method; format: functional
Escherichia coli = test: Antibacterial activity against Escherichia coli ATCC 25922 measured by liquid dilution method; format: functional
Staphylococcus aureus [26] = test: Antibacterial activity against methicillin-resistant Staphylococcus aureus NRS384 measured by liquid dilution method; format: functional
[27] = Plasma protein binding in CD-1 mouse plasma incubated for 4 hrs at 2 uM measured by LC/MS/MS analysis; format: ADME, cell-free; conditions: read-out: PPB (converted)
[28] = Plasma protein binding in CD-1 mouse plasma incubated for 4 hrs and assessed as unbound fraction at 2 uM measured by LC/MS/MS analysis; format: ADME, cell-free

For `CNC1=NC(=O)[C@@H]([C@@H](C)c2c[nH]c3c(F)cccc23)O1`, the MIC [1] was > 128 µg/mL, the MIC (Staphylococcus aureus [2]) was 8 µg/mL (≈ 29.1 µM) and the MIC (Staphylococcus aureus [3]) was 8 µg/mL (≈ 29.1 µM). The MIC [4] was > 128 µg/mL, the MIC [5] was 1 µg/mL (≈ 3.63 µM) and the MIC [6] was 2 µg/mL (≈ 7.27 µM). The MIC (Staphylococcus aureus [7]) was 8 µg/mL (≈ 29.1 µM), the MIC (Staphylococcus aureus [8]) was > 128 µg/mL and the MIC (Enterococcus faecium [9]) was > 128 µg/mL. For the same compound, the MIC (Staphylococcus aureus [10]) was > 128 µg/mL, the MIC (Staphylococcus aureus [11]) was > 128 µg/mL and the MIC (Staphylococcus aureus [12]) was 8 µg/mL (≈ 29.1 µM). The MIC [13] was 2 µg/mL (≈ 7.27 µM), the MIC (Staphylococcus aureus [14]) was 4 µg/mL (≈ 14.5 µM) and the MIC (Staphylococcus aureus [15]) was 8 µg/mL (≈ 29.1 µM). The MIC (Staphylococcus aureus [16]) was > 128 µg/mL, the MIC [17] was 32 µg/mL (≈ 116 µM) and the MIC (Enterococcus faecalis [18]) was > 128 µg/mL. The MIC [19] was > 128 µg/mL, the MIC (Enterococcus faecium [20]) was > 128 µg/mL and the MIC (Staphylococcus aureus [21]) was 8 µg/mL (≈ 29.1 µM). The MIC [22] was 4 µg/mL (≈ 14.5 µM), the MIC (Enterococcus faecalis [23]) was > 128 µg/mL and the MIC (Staphylococcus aureus [24]) was 4 µg/mL (≈ 14.5 µM). The MIC (Staphylococcus aureus [25]) was > 128 µg/mL.

For `CNC1=NC(=O)[C@H]([C@H](C)c2c[nH]c3cc(F)ccc23)O1`, the MIC [1] was 16 µg/mL (≈ 58.1 µM), the MIC (Staphylococcus aureus [2]) was 8 µg/mL (≈ 29.1 µM) and the MIC (Staphylococcus aureus [3]) was 16 µg/mL (≈ 58.1 µM). For the same compound, the MIC [4] was 8 µg/mL (≈ 29.1 µM), the MIC [5] was 16 µg/mL (≈ 58.1 µM) and the MIC [6] was 8 µg/mL (≈ 29.1 µM). The MIC (Staphylococcus aureus [7]) was 8 µg/mL (≈ 29.1 µM), the MIC (Staphylococcus aureus [8]) was 16 µg/mL (≈ 58.1 µM) and the MIC (Enterococcus faecium [9]) was > 128 µg/mL. It also gave an MIC (Staphylococcus aureus [10]) of 8 µg/mL (≈ 29.1 µM), an MIC (Staphylococcus aureus [11]) of 4 µg/mL (≈ 14.5 µM) and an MIC (Staphylococcus aureus [12]) of 16 µg/mL (≈ 58.1 µM). For the same compound, the MIC [13] was 16 µg/mL (≈ 58.1 µM), the MIC (Staphylococcus aureus [14]) was 16 µg/mL (≈ 58.1 µM) and the MIC (Staphylococcus aureus [15]) was 8 µg/mL (≈ 29.1 µM). For the same compound, the MIC (Staphylococcus aureus [16]) was 8 µg/mL (≈ 29.1 µM), the MIC [17] was 8 µg/mL (≈ 29.1 µM) and the MIC (Enterococcus faecalis [18]) was > 128 µg/mL. For the same compound, the MIC [19] was 4 µg/mL (≈ 14.5 µM), the MIC (Enterococcus faecium [20]) was > 128 µg/mL and the MIC (Staphylococcus aureus [21]) was 8 µg/mL (≈ 29.1 µM). The MIC [22] was 16 µg/mL (≈ 58.1 µM), the MIC (Enterococcus faecalis [23]) was > 128 µg/mL and the MIC (Staphylococcus aureus [24]) was 8 µg/mL (≈ 29.1 µM). It also gave an MIC (Staphylococcus aureus [25]) of 16 µg/mL (≈ 58.1 µM).

In the case of `CNC1=NC(=O)[C@@H]([C@@H](C)c2c[nH]c3ccccc23)O1`, the MIC [1] is reported as > 128 µg/mL, the MIC (Staphylococcus aureus [2]) is reported as > 128 µg/mL and the MIC (Staphylococcus aureus [3]) is reported as > 128 µg/mL. For the same compound, the MIC [4] was > 128 µg/mL, the MIC [5] was > 128 µg/mL and the MIC [6] was > 128 µg/mL. For the same compound, the MIC (Staphylococcus aureus [7]) was > 128 µg/mL, the MIC (Staphylococcus aureus [8]) was > 128 µg/mL and the MIC (Enterococcus faecium [9]) was > 128 µg/mL. The MIC (Staphylococcus aureus [10]) was > 128 µg/mL, the MIC (Staphylococcus aureus [11]) was > 128 µg/mL and the MIC (Staphylococcus aureus [12]) was > 128 µg/mL. For the same compound, the MIC [13] was > 128 µg/mL, the MIC (Staphylococcus aureus [14]) was > 128 µg/mL and the MIC (Staphylococcus aureus [15]) was > 128 µg/mL. The MIC (Staphylococcus aureus [16]) was > 128 µg/mL, the MIC [17] was > 128 µg/mL and the MIC (Enterococcus faecalis [18]) was > 128 µg/mL. The MIC [19] was > 128 µg/mL, the MIC (Enterococcus faecium [20]) was > 128 µg/mL and the MIC (Staphylococcus aureus [21]) was > 128 µg/mL. The MIC [22] was > 128 µg/mL, the MIC (Enterococcus faecalis [23]) was > 128 µg/mL and the MIC (Staphylococcus aureus [24]) was > 128 µg/mL. For the same compound, the MIC (Staphylococcus aureus [25]) was > 128 µg/mL.

For `CC(c1c[nH]c2cccc(F)c12)C1OC(N)=NC1=O` (racemic), the MIC (Escherichia coli) was > 128 µg/mL, the MIC (Staphylococcus aureus [26]) was > 128 µg/mL and the MIC (Staphylococcus aureus [25]) was 16 µg/mL (≈ 61.2 µM).

For `CC(c1c[nH]c2cccc(F)c12)C1SC(N)=NC1=O` (racemic), the MIC (Escherichia coli) was > 128 µg/mL, the MIC (Staphylococcus aureus [26]) was > 128 µg/mL and the MIC (Staphylococcus aureus [25]) was 16 µg/mL (≈ 57.7 µM).

For `CC(c1c[nH]c2ccccc12)C1SC(N)=NC1=O` (racemic), the MIC (Escherichia coli) was > 128 µg/mL, the MIC (Staphylococcus aureus [26]) was > 128 µg/mL and the MIC (Staphylococcus aureus [25]) was 8 µg/mL (≈ 30.8 µM).

`CN[C@H](CC(C)C)C(=O)N[C@H]1C(=O)N[C@@H](CC(N)=O)C(=O)N[C@H]2C(=O)N[C@H]3C(=O)N[C@H](C(=O)N[C@H](C(=O)O)c4cc(O)cc(O)c4-c4cc3ccc4O)[C@H](O)c3ccc(c(Cl)c3)Oc3cc2cc(c3O[C@@H]2O[C@H](CO)[C@@H](O)[C@H](O)[C@H]2O[C@H]2C[C@](C)(N)[C@H](O)[C@H](C)O2)Oc2ccc(cc2Cl)[C@H]1O` [VANCOMYCIN] gave an MIC (Staphylococcus aureus [11]) of 8 µg/mL (≈ 5.52 µM) and an MIC (Enterococcus faecalis [18]) of 2 µg/mL (≈ 1.38 µM).

For `CC(=O)CC(c1ccccc1)c1c(O)c2ccccc2oc1=O` (stereo not drawn) [WARFARIN], the fraction unbound at 4 h, 2 µM [27] was 0.098 and the fraction unbound at 4 h, 2 µM [28] was 0.098.
